The values below come from ChEMBL document CHEMBL5523671, “ω-(5-Phenyl-2H-tetrazol-2-yl)alkyl-substituted glycine amides and related compounds as inhibitors of the amine oxidase vascular adhesion protein-1 (VAP-1)” (Bioorg Med Chem, 2024).

Where only a bound is given, the exact number is not on record here.

In data set [1] the target is T1, Amine oxidase [copper-containing] 3 (Bos taurus, UniProt Q9TTK6).
T1 sequence (Q9TTK6 whole entry): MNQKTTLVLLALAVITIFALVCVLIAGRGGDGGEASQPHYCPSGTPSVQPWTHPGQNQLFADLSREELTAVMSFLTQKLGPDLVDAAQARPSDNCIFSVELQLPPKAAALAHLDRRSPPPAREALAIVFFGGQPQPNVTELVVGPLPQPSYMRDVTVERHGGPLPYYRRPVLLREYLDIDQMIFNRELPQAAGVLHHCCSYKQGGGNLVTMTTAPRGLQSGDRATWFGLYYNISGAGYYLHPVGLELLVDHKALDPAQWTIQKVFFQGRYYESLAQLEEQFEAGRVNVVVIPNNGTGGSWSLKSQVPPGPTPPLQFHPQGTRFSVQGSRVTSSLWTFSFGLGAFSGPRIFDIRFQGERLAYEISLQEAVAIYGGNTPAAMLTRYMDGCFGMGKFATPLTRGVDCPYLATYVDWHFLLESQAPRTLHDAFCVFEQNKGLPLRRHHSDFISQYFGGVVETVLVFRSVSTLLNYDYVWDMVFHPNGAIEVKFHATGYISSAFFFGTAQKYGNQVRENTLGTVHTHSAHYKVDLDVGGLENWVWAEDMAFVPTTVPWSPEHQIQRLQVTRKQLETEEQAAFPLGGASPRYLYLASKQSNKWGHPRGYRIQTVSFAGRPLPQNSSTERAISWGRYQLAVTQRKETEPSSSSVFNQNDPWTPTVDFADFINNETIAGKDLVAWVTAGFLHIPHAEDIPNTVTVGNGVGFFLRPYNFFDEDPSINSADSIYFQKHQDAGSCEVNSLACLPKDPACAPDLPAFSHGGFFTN
As to the kind of experiment: Stability of compound assessed as bovine plasma VAP-1 mediated drug degradation by measuring formation of aldehyde metabolite at 1 to 10 uM incubated for 60 to 120 mins by HPLC-MS analysis. The conditions noted are these: cattle, dose lower 1 µM, time lower 60 min, dose upper 10 µM, time upper 120 min. In kind it is ADME, cell-free.

For data set [2], the target named is T2, VAP-1 (amine oxidase [copper-containing] 3) (Bos taurus, UniProt Q9TTK6).
T2 sequence (Q9TTK6 whole entry): T1 sequence (Q9TTK6 whole entry)
As to the kind of experiment: Stability of compound assessed as bovine plasma VAP-1 mediated drug degradation by measuring parent compound remaining at 10 uM incubated for 15 mins by HPLC-MS analysis. In kind it is ADME, cell-free. To be noted: cattle, bovine plasma VAP-1 (amine oxidase [copper-containing] 3), read-out: Stability.

Data set [3] concerns the target T2, VAP-1 (amine oxidase [copper-containing] 3). As to the kind of experiment: Stability of compound assessed as bovine plasma VAP-1 mediated drug degradation by measuring parent compound remaining at 10 uM incubated for 120 mins by HPLC-MS analysis. In kind it is ADME, cell-free. The conditions noted are these: cattle, bovine plasma VAP-1 (amine oxidase [copper-containing] 3), read-out: Stability.

In data set [4] the target is T3, Amine oxidase [copper-containing] 3 (Homo sapiens, UniProt Q16853).
T3 sequence (Q16853 whole entry): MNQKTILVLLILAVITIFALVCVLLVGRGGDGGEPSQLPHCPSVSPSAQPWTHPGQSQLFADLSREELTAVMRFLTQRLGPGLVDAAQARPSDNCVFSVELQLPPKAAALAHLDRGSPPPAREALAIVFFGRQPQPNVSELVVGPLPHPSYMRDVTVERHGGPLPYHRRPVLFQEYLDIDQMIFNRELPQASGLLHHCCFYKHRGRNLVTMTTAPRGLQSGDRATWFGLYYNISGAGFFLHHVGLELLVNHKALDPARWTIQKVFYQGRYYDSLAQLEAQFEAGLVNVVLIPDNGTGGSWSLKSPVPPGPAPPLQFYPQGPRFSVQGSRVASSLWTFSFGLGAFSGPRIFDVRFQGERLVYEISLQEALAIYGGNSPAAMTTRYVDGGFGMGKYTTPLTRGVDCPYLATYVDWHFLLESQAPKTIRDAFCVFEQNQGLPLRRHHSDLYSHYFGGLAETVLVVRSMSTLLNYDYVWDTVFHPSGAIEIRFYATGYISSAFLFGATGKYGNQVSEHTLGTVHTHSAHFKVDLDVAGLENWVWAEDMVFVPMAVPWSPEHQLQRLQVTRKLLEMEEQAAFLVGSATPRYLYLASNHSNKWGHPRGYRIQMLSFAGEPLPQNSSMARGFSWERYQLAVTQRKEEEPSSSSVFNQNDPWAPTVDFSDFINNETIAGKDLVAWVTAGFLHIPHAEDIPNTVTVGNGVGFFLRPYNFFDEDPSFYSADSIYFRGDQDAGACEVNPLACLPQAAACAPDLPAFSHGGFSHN
Description: Inhibition of human plasma VAP-1 using 6-(5-Pheny1-2H-tetrazol-2-yl)hexan-1-amine as substrate preincubated with enzyme for 15 mins followed by substrate addition measured after 120 mins by UV-HPLC analysis. In kind it is cell-free.

The target of data set [5] is T4, Amine oxidase [copper-containing] 3 (Homo sapiens) (UniProt Q16853).
T4 sequence (whole entry): T3 sequence (Q16853 whole entry)
Description: Inhibition of human plasma VAP-1 using 6-(5-Pheny1-2H-tetrazol-2-yl)hexan-1-amine as substrate at 100 uM preincubated with enzyme for 15 mins followed by substrate addition measured after 120 mins by UV-HPLC analysis relative to control. In kind it is cell-free. To be noted: time 135.0 min.

Data set [6] concerns the target T2, VAP-1 (amine oxidase [copper-containing] 3). As to the kind of experiment: Stability of compound assessed as bovine plasma VAP-1 mediated drug degradation by measuring parent compound remaining at 10 uM incubated for 30 mins by HPLC-MS analysis. In kind it is ADME, cell-free. To be noted: cattle, bovine plasma VAP-1 (amine oxidase [copper-containing] 3), read-out: Stability.

The target is the same in data set [7]. Description: Stability of compound assessed as bovine plasma VAP-1 mediated drug degradation by measuring parent compound remaining at 1 uM incubated for 15 mins by HPLC-MS analysis. The conditions noted are these: cattle, bovine plasma VAP-1 (amine oxidase [copper-containing] 3), read-out: Stability. In kind it is ADME, cell-free.
A short description of data set [8]: Selectivity index, ratio of IC50 for human plasma VAP-1 to IC50 for bovine plasma VAP-1.
For data set [9], the target named is T1, Amine oxidase [copper-containing] 3. Description: Inhibition of bovine plasma VAP-1 using 6-(5-Pheny1-2H-tetrazol-2-yl)hexan-1-amine as substrate preincubated with enzyme for 15 mins followed by substrate addition measured after 30 mins by UV-HPLC analysis. In kind it is cell-free.
Data set [10] shares this target. Description: Inhibition of bovine plasma VAP-1 using 6-(5-Pheny1-2H-tetrazol-2-yl)hexan-1-amine as substrate measured after 30 mins by UV-HPLC analysis. In kind it is cell-free.
Data set [11] is described as follows: Selectivity index, ratio of IC50 for porcine kidney DAO to IC50 for bovine plasma VAP-1.
Data set [12] concerns the target T2, VAP-1 (amine oxidase [copper-containing] 3). Description: Stability of compound assessed as bovine plasma VAP-1 mediated drug degradation by measuring parent compound remaining at 1 uM incubated for 30 mins by HPLC-MS analysis. In kind it is ADME, cell-free. The conditions noted are these: cattle, bovine plasma VAP-1 (amine oxidase [copper-containing] 3), read-out: Stability.

Data set [13] has the same target. As to the kind of experiment: Stability of compound assessed as bovine plasma VAP-1 mediated drug degradation by measuring parent compound remaining at 1 uM incubated for 60 mins by HPLC-MS analysis. In kind it is ADME, cell-free. To be noted: cattle, bovine plasma VAP-1 (amine oxidase [copper-containing] 3), read-out: Stability.
The target is the same in data set [14]. As to the kind of experiment: Stability of compound assessed as bovine plasma VAP-1 mediated drug degradation by measuring parent compound remaining at 1 uM incubated for 120 mins by HPLC-MS analysis. The conditions noted are these: cattle, bovine plasma VAP-1 (amine oxidase [copper-containing] 3), read-out: Stability. In kind it is ADME, cell-free.
Data set [15] has the same target. Description: Stability of compound assessed as bovine plasma VAP-1 mediated drug degradation by measuring parent compound remaining at 10 uM incubated for 60 mins by HPLC-MS analysis. To be noted: cattle, bovine plasma VAP-1 (amine oxidase [copper-containing] 3), read-out: Stability. In kind it is ADME, cell-free.
In data set [16] the target is T4, Amine oxidase [copper-containing] 3 (Homo sapiens). Description: Inhibition of human plasma VAP-1 using 6-(5-Pheny1-2H-tetrazol-2-yl)hexan-1-amine as substrate at 10 uM preincubated with enzyme for 15 mins followed by substrate addition measured after 120 mins by UV-HPLC analysis relative to control. The conditions noted are these: time 135.0 min. In kind it is cell-free.

Data set [17] has as its target Amine oxidase [copper-containing] 1 (diamine oxidase, Sus scrofa) (UniProt Q9TRC7). As to the kind of experiment: Inhibition of porcine kidney DAO using 6-(5-phenyltetrazol-2-yl)hexan-1-amine as substrate at 10 uM preincubated with enzyme for 15 mins followed by substrate addition measured after 30 mins by UV-HPLC analysis relative to control. To be noted: time 45.0 min.

Chain of Amine oxidase [copper-containing] 1 (diamine oxidase, Sus scrofa) (Q9TRC7 whole entry, looked up): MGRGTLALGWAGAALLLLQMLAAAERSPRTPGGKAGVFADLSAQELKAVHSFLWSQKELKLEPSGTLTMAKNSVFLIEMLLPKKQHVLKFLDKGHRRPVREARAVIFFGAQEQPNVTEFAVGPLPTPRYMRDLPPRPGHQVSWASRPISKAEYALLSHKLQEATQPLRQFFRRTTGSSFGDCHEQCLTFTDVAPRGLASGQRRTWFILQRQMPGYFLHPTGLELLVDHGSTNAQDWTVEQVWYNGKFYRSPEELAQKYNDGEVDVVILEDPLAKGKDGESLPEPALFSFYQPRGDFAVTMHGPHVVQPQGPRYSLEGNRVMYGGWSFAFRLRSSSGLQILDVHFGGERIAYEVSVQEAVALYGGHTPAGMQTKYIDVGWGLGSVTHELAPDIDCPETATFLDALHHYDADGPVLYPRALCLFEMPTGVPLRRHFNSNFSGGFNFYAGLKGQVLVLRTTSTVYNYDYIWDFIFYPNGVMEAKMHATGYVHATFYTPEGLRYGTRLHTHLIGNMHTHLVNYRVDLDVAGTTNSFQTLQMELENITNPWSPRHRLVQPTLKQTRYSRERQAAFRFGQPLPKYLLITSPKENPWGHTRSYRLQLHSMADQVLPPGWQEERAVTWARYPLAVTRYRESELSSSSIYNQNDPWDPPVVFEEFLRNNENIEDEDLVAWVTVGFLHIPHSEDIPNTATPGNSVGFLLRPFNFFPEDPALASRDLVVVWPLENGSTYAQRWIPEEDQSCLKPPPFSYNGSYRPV

Regarding `NCC(=O)NCCCCCCn1nnc(-c2ccccc2)n1`, the Stability result in data set [1] is given as “Unstable”. In data set [2], the remaining at 0.25 h, 10 µM stood at 80%. Further, in data set [3], the remaining at 2 h, 10 µM is less than 5%. In data set [4], the IC50 (commonly the concentration that gives 50% inhibition) is greater than 100000 nM. In addition, in data set [5], the inhibition (in general, how much of the control response was suppressed) is 23%. Moreover, the remaining at 0.5 h, 10 µM in data set [6] came to 58%.

`Cl.NCC(=O)NCc1cccc(Cn2nnc(-c3ccccc3)n2)c1`: the remaining at 0.25 h, 1 µM in [7] was 73%. In addition, the Ratio IC50 amounted to 2 in data set [8] and 50 in data set [11]. Further, the IC50 stood at 160 nM in data set [9], 370 nM in [10] and 2100 nM in [4]. The Stability result in data set [1] is “Stable”. Besides, the remaining at 0.25 h, 10 µM in data set [2] was greater than 95%. Further, the remaining at 0.5 h, 1 µM in data set [12] worked out at 47%. The remaining at 2 h, 10 µM in [3] is 84%. Further, the remaining at 1 h, 1 µM in [13] was less than 5%. Besides, the remaining at 2 h, 1 µM in [14] was less than 5%. The remaining at 0.5 h, 10 µM in data set [6] was greater than 95%. For the same molecule, the remaining at 1 h, 10 µM in data set [15] stood at 93%.

Consider `CC(C)(C)NC(=O)c1ccc(OC/C(=C/F)CN)cc1`, for which, in data set [7], the remaining at 0.25 h, 1 µM was greater than 95%. Moreover, the IC50 was determined as 27 nM in data set [9] and 1000 nM in [10]. Besides, the remaining at 0.25 h, 10 µM in data set [2] was greater than 95%. Further, the remaining at 0.5 h, 1 µM in data set [12] was greater than 95%. Further, the remaining at 2 h, 10 µM in data set [3] was greater than 95%. Besides, the remaining at 1 h, 1 µM in [13] was greater than 95%. For the same molecule, in [14], the remaining at 2 h, 1 µM is 90%. Moreover, in data set [6], the remaining at 0.5 h, 10 µM is greater than 95%. Moreover, the remaining at 1 h, 10 µM in data set [15] is greater than 95%.

With `N#Cc1ccc(-c2nnn(CCCCCCNC(=O)CN)n2)cc1`, the Ratio IC50 in [8] was 2. Further, the Stability entry in data set [1] is reported as “Unstable”. In addition, in [2], the remaining at 0.25 h, 10 µM came to 85%. Besides, in data set [3], the remaining at 2 h, 10 µM came out at 29%. In data set [4], this molecule registered an IC50 of 32000 nM. Moreover, the inhibition in data set [16] came to 17%. The remaining at 0.5 h, 10 µM in data set [6] amounted to 79%.

As to `Cl.N#Cc1ccc(-c2nnn(Cc3cccc(CNC(=O)CN)c3)n2)cc1`, the remaining at 0.25 h, 1 µM in data set [7] was 74%. The Ratio IC50 was 2 in [8] and 50 in data set [11]. In addition, in data set [1], the Stability result was “Stable”. Further, the remaining at 0.25 h, 10 µM in data set [2] came to 93%. For the same molecule, in [12], the remaining at 0.5 h, 1 µM amounted to 49%. In data set [3], the remaining at 2 h, 10 µM stood at 81%. Also, in data set [13], the remaining at 1 h, 1 µM is less than 5%. Moreover, the remaining at 2 h, 1 µM in data set [14] is less than 5%. For the same molecule, the remaining at 0.5 h, 10 µM in data set [6] worked out at 95%.

On to `NCC(=O)NCc1cccc(-c2ccccc2)c1`, for which the Stability entry in data set [1] was “Unstable”. For the same molecule, the remaining at 0.25 h, 10 µM in data set [2] was found to be 92%. In addition, in data set [3], the remaining at 2 h, 10 µM was 23%. Besides, the inhibition in [17] was 39%. In addition, the remaining at 0.5 h, 10 µM in data set [6] is 85%. Besides, in data set [15], the remaining at 1 h, 10 µM stood at 66%.
